Here are results for 1 molecule from patent publication US9078907B2, “Immunoregulator compounds” (Universita Degli Studi Di Roma “Tor Vergata”, priority 2001, dated 2015).

For one assay, the system named is Mycobacterium smegmatis. The experiment in a line: Colony forming units of M. smegmatis in differentiated THP-1 cells. The format is cell-based. The conditions noted are these: THP-1 macrophage cell line, MOI 50:1, 5 μM, 1, 12 and 24 hours. As for the experimental part:
Human monocytic THP-1 leukemia line cells were used in this example as a model for macrophage response. In order to obtain macrophage phenotype, 5×10^5/ml THP-1 cells were induced to differentiate by 48 hours incubation in the presence of 20 ng/ml Phorbol Myristate Acetate (PMA). Differentiated THP-1 cells (dTHP-1) were then centrifuged three times and suspended in complete medium [RPMI 1640 (Gibco BRL) supplemented with 10% fetal bovine serum (Gibco BRL), 5 mM L-glutamine (Invitrogen), 1 mM sodium pyruvate (Gibco BRL) and non-essential amino acids (Euroclone)]. dTHP-1 were then infected for 3 hours with M. smegmatis at the multiplicity of infection of bacterium/cell 50:1. Following infection cells were washed three times with RPMI 1640 and incubated in complete medium at 37° C. for further 1, 12 and 24 hours in the presence or absence of sphingosine-1 phosphate used at the concentration of 5 μM.
In order to assess the role of macrophage PLD activity in sphingosine 1-phosphate induced mycobacterial growth control, following the infection the cells were cultured in the presence of various concentrations of ethanol (0.3%, 0.03%, 0.003%) or 10 nM calphostin C. […] Inhibiting activity of calphostin C is exploited by targeting PLD catalytic domain (Sciorra V. A., Hammond S. M., Morris A. J. Potent direct inhibition of mammalian phospholipase D isoenzymes by calphostin c. Biochemistry 2001; 40: 2640-46). Just after the infection and at the indicated time points, cells were 1) lysed using cold PBS containing 0.1% saponin (Sigma, MA, USA), ii) serially diluted in PBS containing 0.01% Tween-80 (Merck, Darmstadt, Germany) and iii) plated in triplicate in Middlebrook 7H10 medium (Becton Dickinson, MD, USA) supplemented with 10% OADC formulation (0.5 mg/ml oleic acid, 50 mg/ml albumin, 20 mg/ml dextrose, 0.04 mg/ml catalase and 8.5 mg/ml sodium chloride). M. smegmatis colonies were enumerated after incubation for 3 days at 37° C.

A further assay has as its system macrophage PLD. The format is cell-based, human.
Assay [1] deals with MTB-FITC infected macrophages. The experiment in a line: Phagolysosome maturation by flow cytometry of FITC-labelled MTB infected macrophages. In kind it is cell-based, human. The conditions noted are these: MTB-FITC MOI 1 for 3 hours, 5 μM S1P for 30 minutes; S1P non-treated 63.4%. As for the experimental part:
In some experiments MTB aliquots, after thawing at room temperature, centrifuged at 10000 rpm for 10 minutes, suspended in PBS and sonicated for 1-2 minutes, were labelled with fluorescein isothiocyanate (FITC) (Sigma). FITC, pre-suspended at 1 μg/ml concentration, was added to the bacterial suspension, which was incubated at 37° C. in the presence of 5% CO2 for about 90 minutes. At the end of the incubation the bacterial suspension was washed three times with centrifugation at 14000 rpm for 15 minutes and suspended in PBS at required concentration.
By virtue of extreme sensitivity of fluorescein isothiocyanate (FITC) to acid pHs this molecule was used to monitor the phagosome acidity and have therefore information about maturation stage of phagolysosome. To this aim, bacteria were labelled with fluorescein isothiocyanate (FITC) as above described. Infection was carried out using FITC labelled bacteria. Then, cells were washed after 3 hours and stimulated for 30 minutes with 5 μM sphingosine 1-phosphate and following 1.5% paraformaldehyde (PFA) fixated and finally monitored by flow cytofluorometry.
In order to evaluate the effect of S1P on a specific antimicrobial activity as the maturation of phagolysosome, the infection with FITC-labelled MTB was carried out and the fluorescence values of FITC-MTB were used as indicators of the phagolysosome maturation. […]
(In general: In flow cytometry, cells or beads pass a laser one at a time.)

A further assay has as its system Cathepsin D. The experiment in a line: Western blot of Cathepsin D in macrophage phagosomal fractions after latex beads internalisation. The format is cell-based, human. The conditions noted are these: 5 μM S1P, 24 hours after latex beads internalisation. The protocol:
In order to analyse the expression of an intralysosomal protein within beads containing phagolysosomes the macrophage phagosomal fraction was separated. Particularly, cells were incubated with sterile latex beads ([…]) (Sigma), 1: 200 diluted, in culture medium for 1 hour in the presence of 5% CO2 and then treated with 5 μM S1P.
Separation of the phagosomes was carried out by centrifugation on sucrose gradient. Cells were washed three times with PBS (twice for 10 minutes) and then again incubated for 24 hours at 37°C. Following the internalisation and 24 hour incubation period cells were washed with cold PBS and collected using a little scraper in PBS at 4° C., then centrifuged at 2000 rpm for 10 minutes at 4° C. and finally washed with homogenising buffer (250 mM sucrose, 3 mM imidazole, pH 7.4) again at 4° C. Cellular pellet was suspended in 1 ml homogenising buffer and cells were lysed with an homogenizer. Phagosomes were isolated by centrifugation on sucrose gradient. Cells, suspended in 1 ml of PBS, were added to 1 ml of 40% sucrose solution and such a suspension was stratified on 2 ml of 62% sucrose solution in ultracentrifuge tubes. Then 2 ml of 35%, 25% and 10% sucrose solutions were stratified (all the solutions were prepared in 3 mM imidazole, pH 7.4). The tubes were ultra-centrifuged using SW41 rotor at 100000 g at 4° C. […]
A general note: A western blot detects proteins with antibodies after separation by electrophoresis.

Consider `CCCCCCCCCCCCC/C=C/[C@@H](O)[C@@H](N)COP(=O)(O)O` [S1P, D-erythro-sphingosine 1-phosphate], for which the “intracellular replication of Mycobacterium smegmatis (CFU)” value in the assay on Mycobacterium smegmatis is “inhibits”. In the assay on macrophage PLD, the “Pet-OH production, index of PLD activity, versus MTB infected non S1P treated macrophages” value was “higher”; the “S1P concentration giving maximum activation of macrophage PLD” value was 5 µM; the “time of maximum activation of macrophage PLD” value was found to be 30 min. In assay [1], the “% of fluorescent macrophages (FITC-MTB fluorescence)” value stood at 38.9%. Further, the “amount of intralysosomal protein (Cathepsin D) in the phagosomal fraction versus non-treated macrophages” value in the assay on Cathepsin D was “higher”.
